Assay results reported in patent US10077261B2, “Imidazolin-5-one derivative useful as FASN inhibitors for the treatment of cancer” (Janssen Pharmaceutica NV, priority 2012, dated 2018).

Key:
[1] = target: T1, hFASN enzyme (full length) (Homo sapiens, UniProt P49327); experiment: Fatty Acid Synthase (FASN) inhibition scintillation proximity assay; assay type: biochemical; settings: for inhibition at 10 µM: read-out: Human FASN % inhibition @ 10 μM, 10 μM test compound; for IC50: read-out: Human FASN pIC50 (converted)
T1 construct: 10 μL hFASN enzyme (full length, 300 ng, purified in house); made in house
T1 sequence (P49327 whole entry): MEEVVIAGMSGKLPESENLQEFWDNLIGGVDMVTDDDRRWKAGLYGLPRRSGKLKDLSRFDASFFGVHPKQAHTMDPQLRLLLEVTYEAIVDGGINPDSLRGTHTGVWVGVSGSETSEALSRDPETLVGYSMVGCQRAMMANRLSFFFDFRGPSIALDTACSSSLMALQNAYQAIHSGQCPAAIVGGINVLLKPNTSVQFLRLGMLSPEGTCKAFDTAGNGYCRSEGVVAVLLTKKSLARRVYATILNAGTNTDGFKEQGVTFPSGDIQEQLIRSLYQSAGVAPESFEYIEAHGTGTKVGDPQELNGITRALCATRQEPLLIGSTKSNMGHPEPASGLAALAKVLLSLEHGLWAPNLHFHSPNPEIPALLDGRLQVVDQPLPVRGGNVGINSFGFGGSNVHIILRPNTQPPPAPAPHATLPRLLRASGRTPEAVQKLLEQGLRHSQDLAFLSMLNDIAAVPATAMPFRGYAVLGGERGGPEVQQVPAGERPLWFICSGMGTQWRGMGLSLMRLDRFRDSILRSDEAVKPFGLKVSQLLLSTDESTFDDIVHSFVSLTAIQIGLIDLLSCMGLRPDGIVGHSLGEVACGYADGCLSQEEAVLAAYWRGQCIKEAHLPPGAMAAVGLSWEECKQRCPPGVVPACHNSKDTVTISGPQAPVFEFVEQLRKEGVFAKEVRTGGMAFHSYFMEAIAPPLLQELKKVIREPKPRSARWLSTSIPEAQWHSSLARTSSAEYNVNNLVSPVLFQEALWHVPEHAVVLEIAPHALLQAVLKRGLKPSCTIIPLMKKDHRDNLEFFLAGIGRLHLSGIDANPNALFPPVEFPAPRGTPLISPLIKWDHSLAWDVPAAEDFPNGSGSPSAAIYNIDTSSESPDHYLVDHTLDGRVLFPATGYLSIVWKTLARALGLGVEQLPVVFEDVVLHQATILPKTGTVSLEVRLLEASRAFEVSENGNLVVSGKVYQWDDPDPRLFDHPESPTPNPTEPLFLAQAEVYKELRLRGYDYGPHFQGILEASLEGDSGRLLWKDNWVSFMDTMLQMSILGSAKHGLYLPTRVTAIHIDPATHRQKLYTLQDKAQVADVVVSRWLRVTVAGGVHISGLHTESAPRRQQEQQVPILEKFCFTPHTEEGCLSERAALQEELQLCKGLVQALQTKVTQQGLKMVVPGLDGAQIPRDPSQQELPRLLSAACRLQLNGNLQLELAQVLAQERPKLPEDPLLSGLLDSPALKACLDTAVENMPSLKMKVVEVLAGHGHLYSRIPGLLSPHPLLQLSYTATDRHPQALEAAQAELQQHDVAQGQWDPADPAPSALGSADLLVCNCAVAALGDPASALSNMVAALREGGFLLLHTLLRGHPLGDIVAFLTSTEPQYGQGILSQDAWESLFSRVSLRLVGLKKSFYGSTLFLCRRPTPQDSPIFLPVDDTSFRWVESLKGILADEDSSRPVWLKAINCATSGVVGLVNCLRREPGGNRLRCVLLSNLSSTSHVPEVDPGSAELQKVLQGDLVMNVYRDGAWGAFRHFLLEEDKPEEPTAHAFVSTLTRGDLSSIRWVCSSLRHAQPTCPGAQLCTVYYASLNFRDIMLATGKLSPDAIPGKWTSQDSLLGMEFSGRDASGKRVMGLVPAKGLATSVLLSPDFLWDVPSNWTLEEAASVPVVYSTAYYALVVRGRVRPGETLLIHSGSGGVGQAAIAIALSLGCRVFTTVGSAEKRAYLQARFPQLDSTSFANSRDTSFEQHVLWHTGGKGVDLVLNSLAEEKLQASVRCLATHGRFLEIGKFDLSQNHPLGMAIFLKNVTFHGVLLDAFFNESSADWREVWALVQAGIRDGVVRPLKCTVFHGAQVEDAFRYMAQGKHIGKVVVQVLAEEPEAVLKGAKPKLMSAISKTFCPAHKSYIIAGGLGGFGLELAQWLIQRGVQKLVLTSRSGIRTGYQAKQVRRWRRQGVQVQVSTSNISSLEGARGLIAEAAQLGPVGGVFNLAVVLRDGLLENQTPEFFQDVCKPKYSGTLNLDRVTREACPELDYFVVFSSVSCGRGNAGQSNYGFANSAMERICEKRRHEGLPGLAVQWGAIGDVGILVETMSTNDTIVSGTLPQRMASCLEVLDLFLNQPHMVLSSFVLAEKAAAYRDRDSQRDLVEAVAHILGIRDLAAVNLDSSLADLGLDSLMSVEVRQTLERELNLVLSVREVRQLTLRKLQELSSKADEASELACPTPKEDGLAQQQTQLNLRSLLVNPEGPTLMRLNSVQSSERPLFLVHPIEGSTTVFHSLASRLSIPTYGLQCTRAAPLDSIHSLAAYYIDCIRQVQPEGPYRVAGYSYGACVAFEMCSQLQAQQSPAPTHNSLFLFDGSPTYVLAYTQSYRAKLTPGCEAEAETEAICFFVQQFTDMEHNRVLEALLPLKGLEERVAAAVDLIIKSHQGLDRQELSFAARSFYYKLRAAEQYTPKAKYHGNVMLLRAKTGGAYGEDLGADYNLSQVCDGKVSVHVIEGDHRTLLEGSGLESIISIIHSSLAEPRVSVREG
In short: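 Scintillation proximity format: in-house full-length enzyme, 300 ng per well, pH 7.5 phosphate/DTT buffer, ³H-acetyl-CoA and malonyl-CoA. Emission counted on LEADseeker at 610 nm at least 24 h after stopping.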

A2780 ovarian cells [2] = experiment: A2780 ovarian cell proliferation assay in lipid reduced medium, with palmitate (MTT); assay type: cell-based; settings: Homo sapiens, A2780, 96 h; read-out: pIC50 A2780 Ovarian Cell, With Palmitate (converted)
In short: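 In this palmitate-supplemented format, compound dilutions (30 μM down to 0.01 μM) are added to cells in lipid-reduced serum with 25 μM palmitate, 0.2% fatty-acid-free BSA and 0.25% ethanol. After four days (96 h) MTT absorbance at 544 nm is recorded and fitted by minimum sum of squares.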

A2780 ovarian cells [3] = experiment: A2780 ovarian cell proliferation assay in lipid reduced medium, without palmitate (MTT); assay type: cell-based; settings: Homo sapiens, A2780, 96 h; read-out: pIC50 A2780 Ovarian Cell, Without Palmitate (converted)
[4] = system: LNCaP-Vancouver prostate cells; experiment: In vitro LNCaP Vancouver prostate cell proliferation assay in lipid reduced medium; assay type: cell-based; settings: read-out: pIC50 LNCaP_Vancouver prostate cell (converted)
[5] = system: PC-3M-Luc-C6 prostate cells; experiment: In vitro PC-3M-Luc-C6 prostate cell proliferation assay in lipid reduced medium; assay type: cell-based; settings: 96 h, read-out: pIC50 PC-3M-Luc-C6 prostate cell (converted)
[6] = target: Fatty Acid Synthase Keto-reductase Domain (FASN KR) (Homo sapiens, UniProt P49327); experiment: Fatty Acid Synthase keto-reductase domain (FASN KR) inhibition, NADPH oxidation at 340 nm
Sequence of Fatty Acid Synthase Keto-reductase Domain (FASN KR) (P49327 whole entry, the tested form may be a part): as the sequence (P49327 whole entry) above
Description: After 20 minutes incubation at room temperature the plate was measured again (T2).
The decrease in absorbance was calculated as (Absorbance before incubation T1)−(Absorbance following incubation T2).
A plot of Controlmin versus test compound concentration was fitted to a 4-parameter logistic curve using a non-linear least squares regression method.

SMILES | inhibition at 10 µM [1] | IC50 [1] | IC50 (A2780 ovarian cells [2]) | IC50 (A2780 ovarian cells [3]) | IC50 [4] | IC50 [5] | IC50 [6]
Cc1cc(-c2ccc(-c3cnn(C4CCC4)c3)cc2)ccc1C1=NC2(CC2)C(=O)N1CC1CN(C(=O)C2(C)CC2)C1 [compound 338, 5-(4′-(1-cyclobutyl-1H-pyrazol-4-yl)-3-methyl-[1,1′-biphenyl]-4-yl)-6-((1-(1-methylcyclopropanecarbonyl)azetidin-3-yl)methyl)-4,6-diazaspiro[2.4]hept-4-en-7-one] | 106% | 43.7 nM | ~4270 nM | 21.9 nM | 126 nM | 19.1 nM | 148 nM
Cc1cc(-c2ccc3cc(Cl)cnc3c2)ccc1C1=NC2(CC2)C(=O)N1CC1CN(C(=O)C2(C)CC2)C1 [compound 340, 5-(4-(3-chloroquinolin-7-yl)-2-methylphenyl)-6-((1-(1-methylcyclopropanecarbonyl)azetidin-3-yl)methyl)-4,6-diazaspiro[2.4]hept-4-en-7-one] | 101% | 28.8 nM | 6030 nM | 15.5 nM | 93.3 nM | 18.2 nM | 38 nM
Cn1cnc2cc(-c3ccc(C4=NC5(CC5)C(=O)N4CC4CN(C(=O)C5CC5)C4)c(F)c3)ccc21 [compound 348, 6-((1-(cyclopropanecarbonyl)azetidin-3-yl)methyl)-5-(2-fluoro-4-(1-methyl-1H-benzo[d]imidazol-5-yl)phenyl)-4,6-diazaspiro[2.4]hept-4-en-7-one] | 96% | 63.1 nM | > 10000 nM | 28.8 nM | 282 nM | 40.7 nM | 87.1 nM
Cc1cc2cc(-c3ccc(C4=NC5(CC5)C(=O)N4CC4CN(C(=O)C5CC5)C4)c(F)c3)ccc2o1 [compound 353, 6-((1-(cyclopropanecarbonyl)azetidin-3-yl)methyl)-5-(2-fluoro-4-(2-methylbenzofuran-5-yl)phenyl)-4,6-diazaspiro[2.4]hept-4-en-7-one] | 101% | 55 nM | 6030 nM | 245 nM | 1150 nM | 437 nM | 107 nM
Cc1cc2cc(-c3ccc(C4=NC5(CC5)C(=O)N4C[C@@H]4CCN(C(=O)C5(O)CC5)C4)c(F)c3)ccc2s1 [compound 354, (R)-5-(2-fluoro-4-(2-methylbenzo[b]thiophen-5-yl)phenyl)-6-((1-(1-hydroxycyclopropanecarbonyl)pyrrolidin-3-yl)methyl)-4,6-diazaspiro[2.4]hept-4-en-7-one] | 100% | 50.1 nM | > 10000 nM | 30.9 nM | 245 nM | 35.5 nM | 112 nM
Cc1cc2cc(-c3ccc(C4=NC5(CC5)C(=O)N4C[C@@H]4CCN(C(=O)C5(O)CC5)C4)c(F)c3)ccc2o1 [compound 355, (R)-5-(2-fluoro-4-(2-methylbenzofuran-5-yl)phenyl)-6-((1-(1-hydroxycyclopropanecarbonyl)pyrrolidin-3-yl)methyl)-4,6-diazaspiro[2.4]hept-4-en-7-one] | 96% | 30.2 nM | > 10000 nM | 30.2 nM | 575 nM | 58.9 nM | 42.7 nM

Further molecules by falling IC50 [6], results first:

inhibition at 10 µM [1] | IC50 [1] | IC50 (A2780 ovarian cells [2]) | IC50 (A2780 ovarian cells [3]) | IC50 [4] | IC50 [5] | IC50 [6] | SMILES
102% | 64.6 nM | > 6170 nM | 132 nM | 525 nM | 126 nM | 209 nM | O=C(C1CC1)N1CC[C@@H](CN2C(=O)C3(CC3)N=C2c2ccc(-c3ccc4[nH]ccc4c3)cn2)C1 [compound 341, (R)-5-(5-(1H-indol-5-yl)pyridin-2-yl)-6-((1-(cyclopropanecarbonyl)pyrrolidin-3-yl)methyl)-4,6-diazaspiro[2.4]hept-4-en-7-one]
106% | 69.2 nM | > 10000 nM | 1860 nM | 1620 nM | ~891 nM | 195 nM | O=C(C1CC1)N1CC[C@@H](CN2C(=O)C3(CC3)N=C2c2ccc(-c3ccc4sccc4c3)cn2)C1 [compound 342, (R)-5-(5-(benzo[b]thiophen-5-yl)pyridin-2-yl)-6-((1-(cyclopropanecarbonyl)pyrrolidin-3-yl)methyl)-4,6-diazaspiro[2.4]hept-4-en-7-one]
94% | 74.1 nM | 3020 nM | ~123 nM | 562 nM | 162 nM | 93.3 nM | Cc1cc2cc(-c3ccc(C4=NC5(CC5)C(=O)N4CC4CN(C(=O)C5(C)CC5)C4)c(F)c3)ccc2s1 [compound 352, 5-(2-fluoro-4-(2-methylbenzo[b]thiophen-5-yl)phenyl)-6-((1-(1-methylcyclopropanecarbonyl)azetidin-3-yl)methyl)-4,6-diazaspiro[2.4]hept-4-en-7-one]
95% | 74.1 nM | 8510 nM | 28.2 nM | 57.5 nM | 13.8 nM | 61.7 nM | COc1ccc2cc(-c3ccc(C4=NC5(CC5)C(=O)N4CC4CN(C(=O)C5CC5)C4)c(F)c3)ccc2c1 [compound 351, 6-((1-(cyclopropanecarbonyl)azetidin-3-yl)methyl)-5-(2-fluoro-4-(6-methoxynaphthalen-2-yl)phenyl)-4,6-diazaspiro[2.4]hept-4-en-7-one]
102% | 16.6 nM | > 10000 nM | ~30.9 nM | 138 nM | 33.9 nM | 58.9 nM | O=C(C1CC1)N1CC(CN2C(=O)C3(CC3)N=C2c2ccc(-c3ccc4cc(F)ccc4c3)cc2F)C1 [compound 349, 6-((1-(cyclopropanecarbonyl)azetidin-3-yl)methyl)-5-(2-fluoro-4-(6-fluoronaphthalen-2-yl)phenyl)-4,6-diazaspiro[2.4]hept-4-en-7-one]
99% | 15.1 nM | > 10000 nM | ~28.2 nM | 81.3 nM | 22.4 nM | 55 nM | O=C(C1CC1)N1CC(CN2C(=O)C3(CC3)N=C2c2ccc(-c3ccc4cccc(F)c4c3)cc2F)C1 [compound 350, 6-((1-(cyclopropanecarbonyl)azetidin-3-yl)methyl)-5-(2-fluoro-4-(8-fluoronaphthalen-2-yl)phenyl)-4,6-diazaspiro[2.4]hept-4-en-7-one]
97% | 49 nM | > 10000 nM | ~17 nM | 43.7 nM | 22.4 nM | 53.7 nM | O=C(C1CC1)N1CC(CN2C(=O)C3(CC3)N=C2c2ccc(-c3ccc4cccnc4c3)cc2F)C1 [compound 346, 6-((1-(cyclopropanecarbonyl)azetidin-3-yl)methyl)-5-(2-fluoro-4-(quinolin-7-yl)phenyl)-4,6-diazaqspiro[2.4]hept-4-en-7-one]
95% | 30.9 nM | ~2820 nM | 28.8 nM | 324 nM | 31.6 nM | 47.9 nM | O=C(C1CC1)N1CC(CN2C(=O)C3(CC3)N=C2c2ccc(-c3ccc4cc(Cl)cnc4c3)cc2)C1 [compound 339, 5-(4-(3-chloroquinolin-7-yl)phenyl)-6-((1-(cyclopropanecarbonyl)azetidin-3-yl)methyl)-4,6-diazaspiro[2.4]hept-4-en-7-one]
